Measurements as given in ChEMBL document CHEMBL5465560, “Selectivity Literature for EUbOPEN Chemogenomic Library” (2024).
Each block holds one compound with its values, some of them ahead of it.

Assays:
[1] = biological target: Serine/threonine-protein kinase PRP4 homolog (Homo sapiens) (UniProt Q13523); details: at 10 µM
[2] = biological target: MAP/microtubule affinity-regulating kinase 3 (Homo sapiens) (UniProt P27448); assay: Selectivity interaction (ActivX KiNativ screen (kinase selectivity in THP-1 cell lysates)) EUB0000639a MARK3; format: subcellular; details: lysate, at 0.04 µM
Sequence of MAP/microtubule affinity-regulating kinase 3 (Homo sapiens) (P27448 whole entry, looked up): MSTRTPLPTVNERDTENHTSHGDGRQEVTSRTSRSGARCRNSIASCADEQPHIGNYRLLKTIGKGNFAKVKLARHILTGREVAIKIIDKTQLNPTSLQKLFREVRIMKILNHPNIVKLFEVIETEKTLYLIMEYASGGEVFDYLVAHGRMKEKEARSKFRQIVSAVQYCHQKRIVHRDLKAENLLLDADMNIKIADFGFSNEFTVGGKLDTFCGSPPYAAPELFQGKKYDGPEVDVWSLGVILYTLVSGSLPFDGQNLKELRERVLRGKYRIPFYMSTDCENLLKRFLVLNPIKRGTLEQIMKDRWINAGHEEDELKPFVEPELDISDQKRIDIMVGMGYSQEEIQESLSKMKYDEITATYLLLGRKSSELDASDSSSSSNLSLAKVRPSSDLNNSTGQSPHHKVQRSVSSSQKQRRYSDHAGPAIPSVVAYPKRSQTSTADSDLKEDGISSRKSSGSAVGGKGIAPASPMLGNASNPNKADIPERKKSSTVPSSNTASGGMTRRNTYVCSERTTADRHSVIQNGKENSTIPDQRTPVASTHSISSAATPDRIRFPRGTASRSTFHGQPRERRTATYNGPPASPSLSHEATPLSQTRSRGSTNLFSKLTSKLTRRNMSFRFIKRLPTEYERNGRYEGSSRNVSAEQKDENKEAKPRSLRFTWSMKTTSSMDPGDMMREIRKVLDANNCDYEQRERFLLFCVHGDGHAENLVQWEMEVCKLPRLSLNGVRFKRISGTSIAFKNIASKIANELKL

[3] = biological target: Protein kinase C alpha type (Homo sapiens, UniProt P17252); assay: Selectivity interaction (Kinase panel (33PanQinase(R) Activity Assay)) EUB0000877a PRKCA
[4] = biological target: T1, Interleukin-1 receptor-associated kinase 3 (Homo sapiens) (UniProt Q9Y616); assay: Selectivity interaction (LanthaScreen Eu Kinase Binding Assay) EUB0001632a IRAK3; details: at 10 µM
T1 sequence (whole entry): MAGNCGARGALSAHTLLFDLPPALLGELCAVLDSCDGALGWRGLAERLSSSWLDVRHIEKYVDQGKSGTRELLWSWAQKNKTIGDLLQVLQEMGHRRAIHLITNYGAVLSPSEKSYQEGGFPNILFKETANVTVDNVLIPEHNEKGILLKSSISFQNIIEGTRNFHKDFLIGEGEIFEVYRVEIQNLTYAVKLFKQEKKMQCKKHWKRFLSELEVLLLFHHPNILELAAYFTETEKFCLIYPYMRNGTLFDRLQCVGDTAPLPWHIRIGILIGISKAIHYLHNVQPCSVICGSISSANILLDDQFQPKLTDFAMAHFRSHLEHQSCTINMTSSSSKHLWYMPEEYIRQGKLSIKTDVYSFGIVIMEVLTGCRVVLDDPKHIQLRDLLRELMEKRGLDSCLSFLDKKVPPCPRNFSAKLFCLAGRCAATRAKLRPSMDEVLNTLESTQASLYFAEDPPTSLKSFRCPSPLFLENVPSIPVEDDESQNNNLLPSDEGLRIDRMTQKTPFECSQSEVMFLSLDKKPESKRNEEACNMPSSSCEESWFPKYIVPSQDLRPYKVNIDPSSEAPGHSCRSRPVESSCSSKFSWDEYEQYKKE

Ephrin type-A receptor 4 = Ephrin type-A receptor 4 (Homo sapiens, UniProt P54764); details: at 10 µM
Sequence of Ephrin type-A receptor 4 (P54764 whole entry): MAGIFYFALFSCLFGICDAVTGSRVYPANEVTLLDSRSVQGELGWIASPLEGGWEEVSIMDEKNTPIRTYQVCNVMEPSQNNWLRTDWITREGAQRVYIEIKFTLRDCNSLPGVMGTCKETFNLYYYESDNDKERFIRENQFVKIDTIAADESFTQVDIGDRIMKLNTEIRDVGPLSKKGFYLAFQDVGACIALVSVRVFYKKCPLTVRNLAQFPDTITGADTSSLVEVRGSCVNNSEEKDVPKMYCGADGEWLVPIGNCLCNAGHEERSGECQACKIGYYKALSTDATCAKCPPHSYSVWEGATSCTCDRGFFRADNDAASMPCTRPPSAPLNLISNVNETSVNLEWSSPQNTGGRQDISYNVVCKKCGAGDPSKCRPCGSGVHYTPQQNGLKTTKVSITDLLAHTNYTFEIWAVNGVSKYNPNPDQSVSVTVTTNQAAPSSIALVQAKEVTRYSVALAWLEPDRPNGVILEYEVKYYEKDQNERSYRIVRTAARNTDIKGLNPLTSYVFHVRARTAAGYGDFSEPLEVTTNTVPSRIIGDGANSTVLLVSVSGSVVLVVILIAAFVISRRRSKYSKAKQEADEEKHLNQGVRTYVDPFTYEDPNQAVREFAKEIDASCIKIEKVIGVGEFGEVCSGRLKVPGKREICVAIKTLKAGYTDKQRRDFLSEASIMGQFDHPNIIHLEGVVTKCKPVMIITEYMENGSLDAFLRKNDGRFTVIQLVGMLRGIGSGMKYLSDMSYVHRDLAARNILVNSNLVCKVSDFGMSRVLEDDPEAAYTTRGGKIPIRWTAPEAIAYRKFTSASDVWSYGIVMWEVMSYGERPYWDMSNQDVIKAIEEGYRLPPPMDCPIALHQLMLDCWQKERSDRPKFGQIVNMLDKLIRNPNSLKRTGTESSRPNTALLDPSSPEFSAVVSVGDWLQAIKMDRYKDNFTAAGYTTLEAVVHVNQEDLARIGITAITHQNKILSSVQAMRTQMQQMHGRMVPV

[5] = biological target: Mitogen-activated protein kinase 11 (Homo sapiens) (UniProt Q15759); assay: Selectivity interaction (ProQinase) EUB0000171b MAPK11
Sequence of Mitogen-activated protein kinase 11 (Homo sapiens) (Q15759 whole entry): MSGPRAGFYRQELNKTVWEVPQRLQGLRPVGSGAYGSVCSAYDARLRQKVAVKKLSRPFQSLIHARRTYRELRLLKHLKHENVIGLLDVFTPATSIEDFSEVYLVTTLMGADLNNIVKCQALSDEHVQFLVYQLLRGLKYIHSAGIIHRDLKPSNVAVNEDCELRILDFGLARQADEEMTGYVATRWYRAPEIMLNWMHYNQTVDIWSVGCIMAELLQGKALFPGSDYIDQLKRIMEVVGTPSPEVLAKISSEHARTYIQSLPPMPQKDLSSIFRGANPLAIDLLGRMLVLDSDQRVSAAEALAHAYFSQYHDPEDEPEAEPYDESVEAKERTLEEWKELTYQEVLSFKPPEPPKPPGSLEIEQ

[6] = biological target: T2, cGMP-dependent protein kinase 1 (Homo sapiens) (UniProt Q13976); assay: Selectivity interaction (ProQinase) EUB0000171b PRKG1
T2 sequence (whole entry): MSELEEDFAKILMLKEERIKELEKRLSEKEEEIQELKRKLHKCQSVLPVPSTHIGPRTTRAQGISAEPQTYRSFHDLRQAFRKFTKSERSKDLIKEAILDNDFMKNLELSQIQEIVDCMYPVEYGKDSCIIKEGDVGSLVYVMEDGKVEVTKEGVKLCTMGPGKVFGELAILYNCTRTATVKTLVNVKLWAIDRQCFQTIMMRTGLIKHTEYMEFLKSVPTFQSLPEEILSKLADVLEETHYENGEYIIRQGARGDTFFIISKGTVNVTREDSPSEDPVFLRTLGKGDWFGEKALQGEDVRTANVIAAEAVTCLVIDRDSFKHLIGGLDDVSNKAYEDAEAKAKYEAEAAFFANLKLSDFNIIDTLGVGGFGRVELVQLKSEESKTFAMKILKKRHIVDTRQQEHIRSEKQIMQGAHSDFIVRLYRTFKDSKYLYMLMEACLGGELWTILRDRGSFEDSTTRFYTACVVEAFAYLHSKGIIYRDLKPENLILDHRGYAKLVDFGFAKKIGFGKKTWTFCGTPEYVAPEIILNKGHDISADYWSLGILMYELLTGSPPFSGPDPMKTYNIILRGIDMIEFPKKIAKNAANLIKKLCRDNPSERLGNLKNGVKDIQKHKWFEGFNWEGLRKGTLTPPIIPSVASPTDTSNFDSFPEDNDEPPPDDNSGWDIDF

[7] = biological target: Mitogen-activated protein kinase 9 (Homo sapiens, UniProt P45984); assay: Selectivity interaction (KinomeScan (DiscoverX)) EUB0000092b MAPK9; details: at 10 µM
[8] = system: Phosphatidylinositol 4,5-bisphosphate 3-kinase catalytic subunit alpha isoform (Homo sapiens), P42336 [I800L]; details: at 10 µM
Sequence of Phosphatidylinositol 4,5-bisphosphate 3-kinase catalytic subunit alpha isoform (Homo sapiens), P42336 [I800L] (P42336 whole entry I800L, canonical isoform): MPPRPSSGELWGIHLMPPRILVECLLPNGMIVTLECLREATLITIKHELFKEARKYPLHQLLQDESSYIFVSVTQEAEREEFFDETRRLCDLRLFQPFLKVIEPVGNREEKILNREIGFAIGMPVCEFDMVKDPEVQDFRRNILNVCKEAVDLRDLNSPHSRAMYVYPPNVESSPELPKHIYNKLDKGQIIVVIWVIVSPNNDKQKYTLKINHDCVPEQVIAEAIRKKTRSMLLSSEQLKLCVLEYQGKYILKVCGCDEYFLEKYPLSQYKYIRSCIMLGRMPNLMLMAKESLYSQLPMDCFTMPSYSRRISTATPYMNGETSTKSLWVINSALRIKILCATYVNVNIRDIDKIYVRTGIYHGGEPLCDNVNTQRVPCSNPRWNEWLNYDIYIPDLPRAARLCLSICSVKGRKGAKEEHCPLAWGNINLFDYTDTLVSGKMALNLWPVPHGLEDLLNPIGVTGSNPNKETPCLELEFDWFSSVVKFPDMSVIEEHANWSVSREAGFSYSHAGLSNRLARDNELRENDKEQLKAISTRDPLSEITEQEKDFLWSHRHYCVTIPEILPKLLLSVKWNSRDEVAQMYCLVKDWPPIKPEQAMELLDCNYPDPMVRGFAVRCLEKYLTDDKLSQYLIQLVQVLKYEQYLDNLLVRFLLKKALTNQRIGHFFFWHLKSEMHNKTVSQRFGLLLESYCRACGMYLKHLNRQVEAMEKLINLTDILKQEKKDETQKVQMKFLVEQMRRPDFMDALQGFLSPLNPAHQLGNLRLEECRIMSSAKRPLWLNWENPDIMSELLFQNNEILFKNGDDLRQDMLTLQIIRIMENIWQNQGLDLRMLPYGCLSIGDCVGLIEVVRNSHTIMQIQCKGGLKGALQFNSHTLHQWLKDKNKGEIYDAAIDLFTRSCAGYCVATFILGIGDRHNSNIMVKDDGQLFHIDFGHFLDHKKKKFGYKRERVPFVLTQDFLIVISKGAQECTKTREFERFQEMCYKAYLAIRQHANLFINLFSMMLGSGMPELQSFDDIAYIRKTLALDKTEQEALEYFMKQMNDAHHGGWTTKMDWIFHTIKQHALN

[9] = biological target: T3, Serine/threonine-protein kinase Nek2 (Homo sapiens) (UniProt P51955); assay: Selectivity interaction (Upstate Kinase Profiler service (Millipore)) EUB0000056c NEK2; details: at 1 µM
T3 sequence (whole entry): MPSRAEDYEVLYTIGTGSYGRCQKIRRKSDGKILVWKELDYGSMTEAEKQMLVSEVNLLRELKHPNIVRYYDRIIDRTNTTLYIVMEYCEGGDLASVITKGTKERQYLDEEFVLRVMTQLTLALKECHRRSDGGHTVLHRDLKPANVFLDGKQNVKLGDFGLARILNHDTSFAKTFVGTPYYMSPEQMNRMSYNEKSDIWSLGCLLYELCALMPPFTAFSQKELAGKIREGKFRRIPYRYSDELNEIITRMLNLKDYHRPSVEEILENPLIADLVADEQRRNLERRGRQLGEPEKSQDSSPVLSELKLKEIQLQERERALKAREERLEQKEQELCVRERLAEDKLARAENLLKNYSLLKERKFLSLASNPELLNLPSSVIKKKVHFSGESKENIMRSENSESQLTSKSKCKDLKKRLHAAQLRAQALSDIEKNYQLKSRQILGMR

[10] = biological target: Phosphatidylinositol 4-kinase beta (Homo sapiens, UniProt Q9UBF8); assay: Selectivity interaction (ActivX KiNativ screen (ex vivo kinase selectivity in human PBMCs)) EUB0001619a PI4KB; format: cell-based; details: PBMC, at 1 µM

Sequence of Serine/threonine-protein kinase PRP4 homolog (Homo sapiens) (Q13523 whole entry): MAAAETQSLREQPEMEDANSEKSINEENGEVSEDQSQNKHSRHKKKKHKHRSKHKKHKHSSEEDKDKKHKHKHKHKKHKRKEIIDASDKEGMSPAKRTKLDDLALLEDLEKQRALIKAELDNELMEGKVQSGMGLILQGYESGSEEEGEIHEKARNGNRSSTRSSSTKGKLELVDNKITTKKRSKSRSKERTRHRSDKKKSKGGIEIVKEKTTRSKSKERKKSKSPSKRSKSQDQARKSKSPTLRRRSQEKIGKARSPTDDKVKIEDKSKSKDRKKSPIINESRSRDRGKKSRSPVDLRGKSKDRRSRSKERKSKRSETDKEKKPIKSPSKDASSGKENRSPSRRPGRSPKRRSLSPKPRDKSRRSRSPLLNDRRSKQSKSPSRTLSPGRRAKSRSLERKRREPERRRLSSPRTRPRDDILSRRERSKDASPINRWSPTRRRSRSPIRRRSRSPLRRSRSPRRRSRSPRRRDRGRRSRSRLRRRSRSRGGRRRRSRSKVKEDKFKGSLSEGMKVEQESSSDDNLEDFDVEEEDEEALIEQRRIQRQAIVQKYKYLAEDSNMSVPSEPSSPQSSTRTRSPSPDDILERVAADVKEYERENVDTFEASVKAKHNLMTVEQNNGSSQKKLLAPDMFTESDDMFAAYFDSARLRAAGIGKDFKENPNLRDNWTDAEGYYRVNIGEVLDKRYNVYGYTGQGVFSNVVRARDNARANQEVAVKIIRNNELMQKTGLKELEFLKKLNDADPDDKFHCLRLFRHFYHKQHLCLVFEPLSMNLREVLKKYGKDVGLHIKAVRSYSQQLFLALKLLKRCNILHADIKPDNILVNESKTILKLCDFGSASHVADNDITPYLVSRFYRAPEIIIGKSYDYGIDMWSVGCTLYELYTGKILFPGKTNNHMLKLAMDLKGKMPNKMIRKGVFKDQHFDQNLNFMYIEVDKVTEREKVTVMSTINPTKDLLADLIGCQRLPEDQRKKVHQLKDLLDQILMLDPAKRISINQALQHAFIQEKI

SMILES: Cc1cc([C@@H](C)Nc2ccccc2C(=O)O)c2nc(N3CCOCC3)cc(=O)n2c1 [AZD-6482]
% of control [1]: 71%

% of inhibition [2]: 9.1%
SMILES: CC[C@@H]1[C@H](F)C(=O)N[C@@H]1COc1nccc2cc(C(N)=O)c(OC)cc12 [ZIMLOVISERTIB]

IC50 [3]: > 10 µM
SMILES: CCC(=O)N1CC[C@H](Nc2ncnc3c2CN(c2cnc(OC)c(C(F)(F)F)c2)CC3)C1 [LENIOLISIB]

% of inhibition [4]: -15.9%
SMILES: Cn1cc(-n2cnc3c(NCc4nc5cc(Cl)c(Cl)cc5[nH]4)nc(N4CCOCC4)nc32)cn1

% of control (Ephrin type-A receptor 4): 100%
SMILES: CCN(CC)CCCCNc1ncc2cc(-c3cc(OC)cc(OC)c3)c(NC(=O)NC(C)(C)C)nc2n1

% of control ([5]; at 1 µM): 93%
% of control ([5]; at 5 µM): 75%
% of control ([6]; at 1 µM): 92%
% of control ([6]; at 5 µM): 87%
SMILES: C=CC(=O)Nc1cccc(C(=O)Nc2ccc(Nc3cc(-c4[nH]c(SC)nc4C)ccn3)cc2)c1

SMILES: CCC(=O)N1CCN(c2ccc(-n3c(=O)ccc4cnc5ccc(-c6cnc7ccccc7c6)cc5c43)cc2C(F)(F)F)CC1
% of control [7]: 40%
% of control [8]: 0%

% of inhibition [9]: -7%
SMILES: Cc1ccc(-c2ccc3c(ccc4sc5c(c43)NC[C@@H](C)NC5=O)n2)cn1

SMILES: N#Cc1cccc(-c2c[nH]c3ncnc(N4CCOCC4)c23)c1
% of inhibition [10]: -27%
